Results reported in patent US9018219B2, “Fused aminodihydropyrimidine derivative” (Shionogi & Co., Ltd., priority 2010, dated 2015).

Experiments:
[1] = Solubility test (turbidity, Test Example 7-1); format: physicochemical; conditions: pH 6.8, aqueous buffer, kinetic from dmso stock; JP-II medium, 2% DMSO, turbidity after 4 hours; read-out: solubility assessed by 3 stages
Protocol: A 2-fold dilution series (12 points) of a 10 mM solution of a compound of the present invention in DMSO was added to a medium (JP-I, JP-II) (2%), and solubility was assessed by 3 stages (High; >40 μM, Medium; 3-40 Low; <3 μM) from a turbidity after 4 hours.

[2] = tested on: Neuroblastoma SH-SY5Y cells (SH/APPwt) with human wild-type β-APP excessively expressed; experiment: Measurement of β-amyloid (Aβ) production inhibiting effect in cell; format: cell-based; conditions: 24 hours incubation, Amyloid β 1-40 HTRF in culture supernatant, read-out: IC50 (amount needed to inhibit Aβ production by 50%)
Protocol: Neuroblastoma SH-SY5Y cells (SH/APPwt) with human wild-type β-APP excessively expressed therein were prepared at 8×10^5 cells/mL, and 150 μl portions thereof were inoculated into each well of a 96-well culture plate (Falcon). The cells were cultured for 2 hours at 37° C. in a 5% gaseous carbon dioxide incubator. Then, a solution which have been preliminarily prepared by adding and suspending the compound of the present invention (DMSO (dimethyl sulfoxide) solution) so as to be 2 μl/50 μl medium was added to the cell sap. Namely, the final DMSO concentration was 1%, and the amount of the cell culture was 200 μl. After the incubation was performed for 24 hours from the addition of the test compound, 100 μl of the culture supernatant was collected from each fraction. The amount of the Aβ in each fraction was measured.
The Aβ amount was measured as follows. 10 μl of a homogeneous time resolved fluorescence (HTRF) measurement reagent (Amyloid β 1-40 peptide; IBA Molecular Holding, S.A.) and 10 μl of the culture supernatant were put into a 384-well half area microplate (black microplate, Costar) and mixed with each other, and then left standing overnight at 4° C. while the light was shielded. Then, the fluorescence intensity (excitation wavelength: 337 nm, measurement wavelength: 620 nm and 665 nm) was measured with Wallac 1420 multilabel counter (Perkin Elmer life sciences). The Aβ amount was determined from the count rate at each measurement wavelength (10000×Count 665/Count 620), and the amount needed to inhibit Aβ production by 50% (IC50) was calculated from at least six different dosages.

CYP3A4 = CYP3A4 (Homo sapiens, UniProt P08684); experiment: CYP3A4 fluorescent MBI test; format: in vitro ADME; design: host or cells: Escherichia coli; conditions: 7-BFC substrate, pre-reaction 0 or 30 minutes, CYP3A4 expressed in Escherichia coli
Protocol: The CYP3A4 fluorescent MBI test is a test of investigating enhancement of CYP3A4 inhibition of the compound of the present invention by a metabolism reaction. 7-benzyloxytrifluoromethylcoumarin (7-BFC) is debenzylated by the CYP3A4 enzyme (enzyme expressed in Escherichia coli) and a metabolite, 7-hydroxytrifluoromethylcoumarin (7-HFC) which emits fluorescent light is produced. The test is performed using 7-HFC production reaction as an index.
The reaction conditions are as follows: substrate, […] 7-BFC; pre-reaction time, 0 or 30 minutes; reaction time, 15 minutes; reaction temperature, 25° C. […]
An enzyme in a K-Pi buffer (pH 7.4) and the compound of the present invention solution as a pre-reaction solution were added to a 96-well plate at the composition of the pre-reaction, a part of it was transferred to another 96-well plate so that it was 1/10 diluted by a substrate in a K-Pi buffer, NADPH as a co-factor was added to initiate a reaction as an index (without preincubation) and, after a predetermined time of a reaction, acetonitrile/0.5 mol/L Tris (trishydroxyaminomethane)=4/1 was added to stop the reaction. […] For the plate on which each index reaction had been performed, a fluorescent value of 7-HFC which is a metabolite was measured with a fluorescent plate reader. […]

Recombinant human BACE-1 = biological target: T1, Recombinant human BACE-1 (Homo sapiens, UniProt P56817); experiment: Assay of BACE1 inhibitory activity; format: biochemical; conditions: Recombinant human BACE1 7.4 nmol/L, substrate peptide 18 nmol/L, pH 5.0, 30° C. for 3 hours; read-out: IC50 (50% inhibitory concentration against the enzymatic activity)
T1 construct: purchased R&D Systems
Protocol: 48.5 μL of substrate peptide solution (Biotin-XSEVNLDAEFRHDSGC-Eu: X=ε-amino-n-capronic acid, Eu=Europium cryptate) was added to each well of 96-hole half-area plate (a black plate: Costar), and after addition of 0.5 μl of the compound of the present invention (N,N′-dimethylformamide solution) and 1 μl of Recombinant human BACE-1 (R&D Systems), the reaction mixture was incubated at 30° C. for 3 hours. The substrate peptide was synthesized by reacting Cryptate TBPCOOH mono SMP (CIS bio international) with Biotin-XSEVNLDAEFRHDSGC (Peptide Institute, Inc.). The final concentrations of the substrate peptide and Recombinant human BACE1 were adjusted to 18 nmol/L and 7.4 nmol/L, respectively, and the reaction was performed in sodium acetate buffer (50 mmol/L sodium acetate, pH 5.0, 0.008% Triton X-100). After the incubation for reaction, 50 μl of 8.0 μg/ml Streptavidin-XL665 (CIS bio international) dissolved in phosphate buffer (150 mmol/L K2HPO4—KH2PO4, pH 7.0, 0.008% Triton X-100, 0.8 mol/L KF) was added to each well and left stand at 30° C. for 1 hour. After then, fluorescence intensity was measured (excitation wavelength: 320 nm, measuring wavelength: 620 nm and 665 nm) using Wallac 1420 multilabel counter (Perkin Elmer life sciences). Enzymatic activity was determined from counting ratio of each wavelength (10,000×Count 665/Count 620) and 50% inhibitory concentration against the enzymatic activity (IC50) was calculated.

[3] = Brain distribution studies; format: in vivo; conditions: brain/plasma; rat, intravenous 0.5 mg/mL/kg, 30 minutes later; read-out: brain Kp value (area ratio brain/plasma)
Protocol: Compound of the present invention is intravenously administered to a rat at 0.5 mg/mL/kg dosage.
The brain is enucleated and 20-25% of homogenate thereof is prepared with distilled water.
The obtained blood is used as plasma after centrifuging. To the brain sample is added the control plasma at 1:1. To the plasma samples is added the control brains at 1:1. Each sample is measured using LC/MS/MS. The obtained area ratio (a brain/plasma) is used for the brain Kp value.

T1 sequence (P56817 46-501): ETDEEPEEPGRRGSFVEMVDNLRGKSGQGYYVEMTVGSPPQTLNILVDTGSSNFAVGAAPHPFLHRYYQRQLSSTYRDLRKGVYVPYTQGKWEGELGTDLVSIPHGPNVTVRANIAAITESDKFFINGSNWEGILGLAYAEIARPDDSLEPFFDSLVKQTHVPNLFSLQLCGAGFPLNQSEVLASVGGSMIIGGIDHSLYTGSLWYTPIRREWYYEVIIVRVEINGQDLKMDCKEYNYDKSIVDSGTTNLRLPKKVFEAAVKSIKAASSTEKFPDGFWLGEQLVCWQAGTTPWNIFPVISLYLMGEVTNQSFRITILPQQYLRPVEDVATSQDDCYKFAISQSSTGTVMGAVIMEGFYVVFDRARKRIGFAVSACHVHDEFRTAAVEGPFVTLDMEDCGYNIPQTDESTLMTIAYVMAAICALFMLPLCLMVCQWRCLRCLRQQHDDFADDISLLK
Chain of CYP3A4 (P08684 whole entry): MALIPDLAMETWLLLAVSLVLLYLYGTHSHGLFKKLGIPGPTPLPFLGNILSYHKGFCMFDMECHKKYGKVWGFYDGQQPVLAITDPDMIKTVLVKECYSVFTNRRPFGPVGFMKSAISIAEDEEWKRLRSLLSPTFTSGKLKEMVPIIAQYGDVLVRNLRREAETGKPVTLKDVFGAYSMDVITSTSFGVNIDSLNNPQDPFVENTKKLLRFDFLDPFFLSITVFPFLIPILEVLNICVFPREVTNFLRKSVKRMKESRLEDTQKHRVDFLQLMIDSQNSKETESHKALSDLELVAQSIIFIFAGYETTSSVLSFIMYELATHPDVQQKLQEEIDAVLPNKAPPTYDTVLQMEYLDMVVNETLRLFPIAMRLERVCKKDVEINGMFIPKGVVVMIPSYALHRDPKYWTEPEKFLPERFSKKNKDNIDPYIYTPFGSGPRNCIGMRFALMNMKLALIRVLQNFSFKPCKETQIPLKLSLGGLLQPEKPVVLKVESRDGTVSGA

Row | Structure (SMILES) | solubility at 4 h [1] [µM] | IC50 [2] [nM] | IC50 (Recombinant human BACE-1) [nM] | Kp at 0.5 h [3] | CYP3A4 fluorescent MBI: difference between IC50 values without and with preincubation (CYP3A4)
1 | C[C@@]1(c2cc(NC(=O)c3ccc(C#N)cn3)ccc2F)Cc2nccn2C(N)=N1 [Compound I-1] | > 40 | ≤ 1000 | ≤ 1000 |  | (−) (when the difference is 3 μM or less, this was defined as (−))
2 | C[C@@]1(c2cc(NC(=O)c3ccc(C#N)cn3)ccc2F)Cc2ccnn2C(N)=N1 [Compound I-3] |  | 3 | 36 |  | 
3 | CC#Cc1cncc(-c2csc([C@]3(C)Cc4nccn4C(N)=N3)c2)c1 [Compound I-4] |  | ≤ 1000 | ≤ 1000 |  | 

Now from value to compound, other results behind:

Row | solubility at 4 h [1] [µM] | IC50 [2] [nM] | IC50 (Recombinant human BACE-1) [nM] | Kp at 0.5 h [3] | Structure (SMILES) | CYP3A4 fluorescent MBI: difference between IC50 values without and with preincubation (CYP3A4)
4 |  | ≤ 1000 | ≤ 1000 |  | CC1(c2cc(NC(=O)c3ccc(C#N)cn3)ccc2F)Cc2cncn2C(N)=N1 (stereo not shown) [Compound I-6] | 
5 |  | ≤ 1000 | ≤ 1000 | 1.7 | CC1(c2cc(-c3cccnc3F)ccc2F)Cc2cncn2C(N)=N1 (stereo not shown) [Compound I-7] | 
